Data set [1] in a line: logP (physical data of the preparation examples). It is filed as physicochemical.
The test system of data set [2] is Phytophthora infestans. It is filed as in vivo. The settings on record: Tomate, protektiv; for Wirkungsgrad in %: Aufwandmenge an Wirkstoff 50 g/ha, evaluated 3 days after inoculation, 0 % = as control, 100 % = no infestation; for Wirkungsgrad: Wirkstoffaufwandmenge 50 g/ha, summary sentence in the text for both compounds.

For `COc1ccc(CCNC(=O)C(=O)c2ccc3c(c2)CCCCC3)cc1OC` [Beispiel 4], in data set [1], the logP was 3.57. The same measure, in the same setting: the result for `COc1ccc(CCNC(=O)C(O)c2ccc3c(c2)CCCC3)cc1OC` (stereo not shown) [Beispiel 2, N-[2-(3,4-Dimethoxyphenyl)-ethyl]-2-hydroxy-2-(5,6,7,8-tetrahydronaphthalin-2-yl)-acetamid] reads 2.43.

In the case of `COc1ccc(CCNC(=O)C(=O)c2ccc3c(c2)CCC3)cc1OC` [Beispiel 3], in data set [2], the Wirkungsgrad in % is 90% and the Wirkungsgrad is reported as 90 -95%. Besides, the logP in data set [1] is 2.92.

As for `COc1ccc(CCNC(=O)C(=O)c2ccc3c(c2)CCCC3)cc1OC` [Beispiel 1, N-[2-(3,4-Dimethoxyphenyl)-ethyl]-2-oxo-2-(5,6,7,8-tetrahydronaphthalin-2-yl)-acetamid], in data set [2], the Wirkungsgrad in % worked out at 95% and the Wirkungsgrad is reported as 90 -95%. In data set [1], this compound yielded a lipophilicity (logP) of 3.24.

In data set [1], `COc1ccc(CCNC(=O)C(O)c2ccc3c(c2)CCCCC3)cc1OC` (stereo not shown) [Beispiel 6] displayed a logP of 2.7. Same read-out and setting: the same measure for `COc1ccc(CCNC(=O)C(O)c2ccc3c(c2)CCC3)cc1OC` (stereo not shown) [Beispiel 5]: 2.19.

One may read the logP as the decadic logarithm of the partition coefficient of the neutral form, usually between octanol and water.
